Experimental data published in patent US9187771B2, “Phenylpyruvate reductase and method for manufacturing optically-active phenyllactic acid and 4-hydroxyl-phenyllactic acid using same enzyme” (Asahi Kasei Chemicals Corporation, priority 2011, dated 2015).
Where two headings read alike, the source gives them in different places.

How the values were obtained:
[1] = system: PPR (phenylpyruvate reductase) from Wickerhamia fluorescens TK1; experiment: PPR activity measurement with purified PPR enzyme (NADPH decrease at 340 nm); assay type: biochemical; conditions: for effect of metal ion on PPR activity: final concentration 1 mM; for reverse reaction of the PPR enzyme: combination of D-3-phenyllactate, L-3-phenyllactate, NAD+ and NADP+ as substrate; for reduction of substrate by the PPR enzyme: NADPH as coenzyme
[2] = system: PPR activity of W. fluorescens TK1 strain; assay type: cell-based, Wickerhamia fluorescens TK1
[3] = system: W. fluorescens TK1 strain; conditions: 5.0 mM added to MM culture medium, aerobic shake culture
pprA gene = experiment: Real-time PCR of pprA transcript; conditions: 5 mM phenylalanine, culture 8 hours
rPPR (recombinant PPR) = assay type: biochemical, Wickerhamia fluorescens TK1; conditions: variable substrate; fixed substrate NADPH
[4] = final concentration of compound 1 mM, None = 100
[5] = variable coenzyme, fixed substrate Phenylpyruvate

Compound: [Na+].[Na+].[O]=[Mo](=[O])([O-])[O-] [Na2MoO4]
- Relative activity [1, 4]: 89%

Compound: O=S(=O)([O-])[O-].[Cu+2] [CuSO4]
- effect of metal ion on PPR activity [1]: inhibit PPR activity
- Relative activity [1, 4]: 0%

Compound: [Cl][Mn][Cl] [MnCl2]
- Relative activity [1, 4]: 103%

Compound: NADH
- kcat/Km with NADH relative to that with NADPH as coenzyme ([1]; fixed substrate phenylpyruvate): 1/31
- Km [1, 5]: 0.1 ± 0.04 mM
- kcat [1, 5]: 31.4 ± 7.1 s⁻¹

Compound: N[C@@H](Cc1ccccc1)C(=O)O [L-phenylalanine]
- PPR activity compared with culture in the GPAMM culture medium (phenylpyruvate added) ([2]; 10 hours at 30° C.): 3.0 times
- PPR activity compared with culture in the MM culture medium ([2]; 10 hours at 30° C.): 3.6 fold
- PPR activity of the cell free extract ([2]; cells cultured 10 hours at 30° C. in medium with 5 mM L-phenylalanine): 0.22 µmol/min/mg
- D-3-phenyllactate production relative to when none was added [3]: 57.5 fold
- quantity of cells relative to when none was added [3]: 5.1 fold
- D-3-phenyllactate production relative to when none was added ([3]; listed as phenylalanine): up to 58 fold
- transcription level of the pprA gene compared with GPAMM culture medium (pprA gene): 18 fold
- transcription level of the pprA gene compared with MM culture medium (pprA gene): 40 fold

Compound: [Na+].[Na+].[O]=[W](=[O])([O-])[O-] [Na2WO4]
- effect of metal ion on PPR activity [1]: inhibit PPR activity
- Relative activity [1, 4]: 0%

Compound: [Cl][Fe][Cl] [FeCl2]
- effect of metal ion on PPR activity [1]: inhibit PPR activity
- Relative activity [1, 4]: 0%

Compound: O=C(O)C(O)Cc1ccccc1 (stereo in doubt) [L-3-phenyllactate]
- reverse reaction of the PPR enzyme [1]: failure of an enzyme reaction to arise

Compound: [Cl-].[Cl-].[Co+2] [CoCl2]
- Relative activity [1]: 61%

Compound: TritonX-100
- Relative activity [1]: 82%

Compound: [Cl][Ni][Cl] [NiCl2]
- Relative activity [1, 4]: 63%

Compound: O=C(O)C(O)Cc1ccccc1 (stereo in doubt) [D-3-phenyllactate]
- reverse reaction of the PPR enzyme [1]: failure of an enzyme reaction to arise

Compound: O=C(O)C(=O)Cc1ccccc1 [Phenylpyruvate, phenylpyruvate]
- D-3-phenyllactate production relative to when none was added [3]: 8.9 fold
- quantity of cells relative to when none was added [3]: 1.5 fold

Compound: NADPH
- Km [1, 5]: 0.01 mM
- kcat [1, 5]: 121 ± 2 s⁻¹

Compound: O=CC(=O)O [Glyoxylate]
- reduction of substrate by the PPR enzyme [1]: reduced
- kcat ([1]; variable substrate, fixed substrate NADPH): 18.9 ± 3.4 s⁻¹
- Km ([1]; variable substrate, fixed substrate NADPH, pH 6.5, 25° C.): 18.9 ± 5.8 mM
- Km (rPPR (recombinant PPR)): 25.2 ± 3.1 mM
- kcat (rPPR (recombinant PPR)): 10.4 ± 0.8 s⁻¹

Compound: O=S(=O)([O-])[O-].[Mg+2] [MgSO4]
- Relative activity [1, 4]: 92%

Compound: O=C(O)CN(CCN(CC(=O)O)CC(=O)O)CC(=O)O [EDTA, ethylenediaminetetraacetate]
- Relative activity [1, 4]: 84%

Compound: O=S(=O)([O-])[O-].[Zn+2] [ZnSO4]
- effect of metal ion on PPR activity [1]: inhibit PPR activity
- Relative activity [1, 4]: 9%

Compound: CCCCCCCC/C=C\CCCCCCCC(=O)OCCOCC(OCCO)C1OCC(OCCO)C1OCCO (stereo not drawn) [Tween 80]
- Relative activity ([1]; final concentration 0.5%, None = 100): 52%

Compound: O=C(O)C(=O)CO [Hydroxypyruvate]
- kcat [1]: 9.14 ± 0.70 s⁻¹
- reduction of substrate by the PPR enzyme [1]: reduced
- Km ([1]; pH 6.5): 3.46 ± 0.83 mM
- Km (rPPR (recombinant PPR)): 6.99 ± 2.74 mM
- kcat (rPPR (recombinant PPR)): 6.63 ± 1.04 s⁻¹

Compound: [Ca+2].[Cl-].[Cl-] [CaCl2]
- Relative activity [1, 4]: 90%

Compound: [Cl][Hg][Cl] [HgCl2]
- effect of metal ion on PPR activity [1]: inhibit PPR activity
- Relative activity [1, 4]: 0%

Compound: O=C(O)C(=O)Cc1ccc(O)cc1 [4-hydroxyphenylpyruvate]
- reduction of substrate by the PPR enzyme [1]: reduced

Compound: OCCS [2-Mercaptoethanol]
- Relative activity [1]: 64%
